Experiments:
[1] = target: human FAK (Homo sapiens (Human), UniProt Q05397); details: read-out: FAK IC50
Method: The ability of compounds to inhibit the kinase activity of baculovirus-expressed human FAK and PYK2 was measured using the 96-well plate TRF assay system described above for JAK2. […] For the FAK kinase assay, the reaction mixture (total volume=100 μL/well) contained 20 mM HEPES (pH 7.2), 10 μM ATP, 5 mM MgCl2, 0.5 mM DTT, 0.1% BSA, and test compound (diluted in DMSO; 2.5% DMSO final in assay). For PYK2, the 100 μL assay solution consisted of 20 mM HEPES (pH 7.2), 3 μM ATP, 5 mM MnCl2, 0.1% BSA, and test compound (diluted in DMSO; 2.5% DMSO final in assay). Enzyme (10 ng/mL FAK or 25 ng/mL PYK2) was added and the reaction was allowed to proceed at room temperature for 30 min. Detection of the phosphorylated product was performed by adding 100 μL/well of Eu—N1 labeled PY100 antibody diluted 1:75000 in 0.25% BSA in TBS-T (PerkinElmer #AD0041). […] Inhibition data were analyzed using ActivityBase and IC50 curves generated using XLFit.

[2] = target: human JAK2 (Homo sapiens (Human), UniProt O60674); details: read-out: JAK2 IC50
Chain of human JAK2 (O60674 815-1132): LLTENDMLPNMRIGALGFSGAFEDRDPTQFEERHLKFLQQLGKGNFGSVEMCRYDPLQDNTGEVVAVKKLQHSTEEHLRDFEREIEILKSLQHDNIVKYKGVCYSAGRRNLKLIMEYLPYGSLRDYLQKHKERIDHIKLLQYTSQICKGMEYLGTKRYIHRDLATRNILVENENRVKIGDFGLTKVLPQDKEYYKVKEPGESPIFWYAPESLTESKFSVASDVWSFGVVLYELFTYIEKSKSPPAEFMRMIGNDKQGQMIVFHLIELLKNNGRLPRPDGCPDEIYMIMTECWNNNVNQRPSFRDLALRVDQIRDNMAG

Chain of human FAK (Q05397 whole entry): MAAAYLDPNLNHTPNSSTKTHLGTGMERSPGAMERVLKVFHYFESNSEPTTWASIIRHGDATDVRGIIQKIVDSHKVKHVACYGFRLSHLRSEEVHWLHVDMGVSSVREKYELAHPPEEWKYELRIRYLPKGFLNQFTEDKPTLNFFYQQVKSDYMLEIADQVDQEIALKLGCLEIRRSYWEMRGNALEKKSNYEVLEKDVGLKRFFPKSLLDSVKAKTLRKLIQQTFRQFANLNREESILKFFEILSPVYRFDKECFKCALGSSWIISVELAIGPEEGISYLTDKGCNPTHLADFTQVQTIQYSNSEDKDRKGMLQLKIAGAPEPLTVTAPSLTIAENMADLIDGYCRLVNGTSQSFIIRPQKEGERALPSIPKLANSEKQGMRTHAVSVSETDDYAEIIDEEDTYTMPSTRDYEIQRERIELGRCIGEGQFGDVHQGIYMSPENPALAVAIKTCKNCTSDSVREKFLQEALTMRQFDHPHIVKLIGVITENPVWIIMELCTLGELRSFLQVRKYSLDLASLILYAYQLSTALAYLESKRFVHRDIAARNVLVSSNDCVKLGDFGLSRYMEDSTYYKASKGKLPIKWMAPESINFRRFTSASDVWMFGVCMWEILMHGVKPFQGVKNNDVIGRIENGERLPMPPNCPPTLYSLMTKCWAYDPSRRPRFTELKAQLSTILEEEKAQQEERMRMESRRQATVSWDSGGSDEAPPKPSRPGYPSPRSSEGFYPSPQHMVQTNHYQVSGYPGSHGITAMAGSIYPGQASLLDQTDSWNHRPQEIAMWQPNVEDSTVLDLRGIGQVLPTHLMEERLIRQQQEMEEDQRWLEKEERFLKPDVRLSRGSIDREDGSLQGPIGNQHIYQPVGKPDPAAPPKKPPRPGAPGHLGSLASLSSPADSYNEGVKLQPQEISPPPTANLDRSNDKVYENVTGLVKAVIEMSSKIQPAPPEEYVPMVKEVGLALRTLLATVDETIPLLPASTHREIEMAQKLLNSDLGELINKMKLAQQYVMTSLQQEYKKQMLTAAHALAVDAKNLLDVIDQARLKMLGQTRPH

Structure (SMILES)	IC50 [1] [nM]	IC50 [2] [nM]
CN(c1cccc(-c2cccn3nc(Nc4ccc(OCCN5CCCC5)cc4)nc23)c1)S(C)(=O)=O [Example 128, N-Methyl-N-(3-{2-[4-(2-pyrrolidin-1-yl-ethoxy)-phenylamino]-[1,2,4]triazolo[1,5-a]pyridin-8-yl}-phenyl)-methanesulfonamide]	2310	34
CN1CCN(c2ccc(Nc3nc4c(-c5ccc(CS(C)(=O)=O)cc5)cccn4n3)cc2)CC1 [Example 48, [8-(4-Methanesulfonylmethyl-phenyl)-[1,2,4]triazolo[1,5-a]pyridin-2-yl]-[4-(4-methyl-piperazin-1-yl)-phenyl]-amine]	1720	0.7
CN1CCN(c2ccc(Nc3nc4cccc(-c5ccc(CN6CCS(=O)(=O)CC6)cc5)n4n3)cc2)CC1 [Example 70, 5-{4-[(1,1-dioxidothiomorpholin-4-yl)methyl]phenyl}-N-[4-(4-methylpiperazin-1-yl)phenyl][1,2,4]triazolo[1,5-a]pyridin-2-amine]	291	1.1
CN1CCN(c2cccc(Nc3nc4c(-c5ccc(F)cc5)cccn4n3)c2)CC1 [Example 365, [8-(4-Fluoro-phenyl)-[1,2,4]-triazolo[1,5-a]pyridin-2-yl]-[3-(4-methyl-piperazin-1-yl)-phenyl]-amine]	999	29.1
CN1Cc2ccc(Nc3nc4c(C#Cc5ccccc5N(C)S(C)(=O)=O)cccn4n3)cc2C1 [Example 193, N-Methyl-N-{2-[2-(2-methyl-2,3-dihydro-1H-isoindol-5-ylamino)-[1,2,4]triazolo[1,5-a]pyridin-8-ylethynyl]-phenyl}-methanesulfonamide]	3000	11.5
COc1ccc(C(F)(F)F)cc1-c1cccn2nc(Nc3ccc4c(c3)CCNC4)nc12 [Example 337, [8-(2-Methoxy-5-trifluoromethyl-phenyl)-[1,2,4]triazolo[1,5-a]pyridine-2-yl]-(1,2,3,4-tetrahydro-isoquinolin-6-yl)-amine]	778	41.9
CN1CCN(c2cccc(Nc3nc4c(NCc5cccc(S(C)(=O)=O)c5)cccn4n3)c2)CC1 [Example 161, N(8)-(3-Methanesulfonyl-benzyl)-N(2)-[3-(4-methyl-piperazin-1-yl)-phenyl]-[1,2,4]triazolo[1,5-a]pyridine-2,8-diamine]	10000	399
FC(F)(F)c1cccc(-c2cccn3nc(Nc4ccc5c(c4)CCNCC5)nc23)c1 [Example 375, (2,3,4,5-Tetrahydro-1H-3-benzazepin-7-yl)-[8-(3-trifluoromethyl-phenyl)-[1,2,4]triazolo[1,5-a]pyridin-2-yl]-amine]	422	42.5
CN1CCN(c2ccc(Nc3nc4c(NCc5ccccc5S(C)(=O)=O)cccn4n3)cc2)CC1 [Example 138, N(8)-(2-Methanesulfonyl-benzyl)-N(2)-[4-(4-methyl-piperazin-1-yl)-phenyl]-[1,2,4]triazolo[1,5-a]pyridine-2,8-diamine]	199	13.2
CN1CCN(c2ccc(Nc3nc4c(-c5cccc(CN(C)S(C)(=O)=O)c5)cccn4n3)cc2)CC1 [Example 175, N-Methyl-N-(3-{2-[4-(4-methyl-piperazin-1-yl)-phenylamino]-[1,2,4]triazolo[1,5-a]pyridin-8-yl}-benzyl)-methanesulfonamide]	3000	7.95
CN1CCN(c2cccc(Nc3nc4c(-c5cccc(S(C)(=O)=O)c5)cccn4n3)c2)CC1 [Example 60, [8-(3-Methanesulfonyl-phenyl)-[1,2,4]triazolo[1,5-a]pyridin-2-yl]-[3-(4-methyl-piperazin-1-yl)-phenyl]-amine]	1260	6.4
CN1CCN(c2cccc(Nc3nc4c(Nc5cccc(S(C)(=O)=O)c5)cccn4n3)c2)CC1 [Example 110, N(8)-(3-Methanesulfonyl-phenyl)-N(2)-[3-(4-methyl-piperazin-1-yl)-phenyl]-[1,2,4]triazolo[1,5-a]pyridine-2,8-diamine]	3000	1310
CN1CCC(c2ccc(Nc3nc4c(NCc5cccc(S(C)(=O)=O)c5)cccn4n3)cc2)CC1 [Example 162, N(8)-(3-Methanesulfonyl-benzyl)-N(2)-[4-(1-methyl-piperidin-4-yl)-phenyl]-[1,2,4]triazolo[1,5-a]pyridine-2,8-diamine]	10000	328
CP(C)(=O)c1ccc(-c2cccn3nc(N(CCS(C)(=O)=O)c4cccc(C5CCN(CCS(C)(=O)=O)CC5)c4)nc23)cc1 [Example 199, {8-[4-(Dimethyl-phosphinoyl)-phenyl]-[1,2,4]triazolo[1,5-a]pyridin-2-yl}-(2-methanesulfonyl-ethyl)-{3-[1-(2-methanesulfonyl-ethyl)-piperidin-4-yl]-phenyl}-amine]	10000	95.8
COc1cc(F)ccc1-c1cccn2nc(Nc3ccc4c(c3)CCN(CC(=O)N(C)C)CC4)nc12 [Example 324, 2-{7-[8-(4-Fluoro-2-methoxy-phenyl)-[1,2,4]triazolo[1,5-a]pyridin-2-ylamino]-1,2,4,5-tetrahydro-3-benzazepin-3-yl}-N,N-dimethyl-acetamide]	3000	47
CS(=O)(=O)c1ccc(-c2cccn3nc(Nc4cccc(N5CCNCC5)c4)nc23)cc1 [Example 181, [8-(4-Methanesulfonyl-phenyl)-[1,2,4]triazolo[1,5-a]pyridin-2-yl]-(3-piperazin-1-yl-phenyl)-amine]	1130	0.97
CN(c1ccccc1CNc1cccn2nc(Nc3ccc(OCCN4CCCC4)cc3)nc12)S(C)(=O)=O [Example 150, N-Methyl-N-[2-({2-[4-(2-pyrrolidin-1-yl-ethoxy)-phenylamino]-[1,2,4]triazolo[1,5-a]pyridin-8-ylamino}-methyl)-phenyl]-methanesulfonamide]	13	43.7
CS(=O)(=O)c1ccc(-c2cccn3nc(Nc4cccc(CN5CCS(=O)(=O)CC5)c4)nc23)cc1 [Example 120, N-{3-[(1,1-dioxidothiomorpholin-4-yl)methyl]phenyl}-8-[4-(methylsulfonyl)phenyl][1,2,4]triazolo[1,5-a]pyridin-2-amine]	2000	0.67
CN1CCN(c2ccc(Nc3nc4c(Nc5cccnc5N(C)S(C)(=O)=O)cccn4n3)cc2)CC1 [Example 131, N-Methyl-N-(3-{2-[4-(4-methyl-piperazin-1-yl)-phenylamino]-[1,2,4]triazolo[1,5-a]pyridin-8-ylamino}-pyridin-2-yl)-methanesulfonamide]	1370	11.4
CC(C)(C)OC(=O)N1CCC(n2cc(Nc3nc4c(-c5ccc(S(C)(=O)=O)cc5)cccn4n3)cn2)CC1 [Example 212, 4-{4-[8-(4-Methanesulfonyl-phenyl)-[1,2,4]triazolo[1,5-a]pyridin-2-ylamino]-pyrazol-1-yl}-piperidin-1-carboxylic acid tert-butyl ester]	3000	0.5
c1cc(-c2ccncc2)c2nc(Nc3ccc(N4CCOCC4)cc3)nn2c1 [Example 11, (4-Morpholin-4-yl-phenyl)-(8-pyridin-4-yl-[1,2,4]triazolo[1,5-a]pyridin-2-yl)-amine]	6500	5.5
COc1ccc(CNc2cccn3nc(Nc4cccc(N5CCN(C)CC5)c4)nc23)cc1 [Example 393, N(8)-(4-Methoxy-benzyl)-N(2)-[3-(4-methyl-piperazin-1-yl)-phenyl]-[1,2,4]triazolo[1,5-a]pyridine-2,8-diamine]	10000	10000
CC(C)(C)OC(=O)N1CCN(c2cccc(Nc3nc4c(-c5ccc(S(C)(=O)=O)cc5)cccn4n3)c2)CC1 [Example 179, 4-{3-[8-(4-Methanesulfonyl-phenyl)-[1,2,4]triazolo[1,5-a]pyridin-2-ylamino]-phenyl}-piperazine-1-carboxylic acid tert-butyl ester]	10000	3.72
CS(=O)(=O)CCN1CCc2ccc(Nc3nc4c(-c5cccc6c5OC(F)(F)O6)cccn4n3)cc2CC1 [Example 247, [8-(2,2-difluoro-1,3-benzodioxol-4-yl)-[1,2,4]triazolo[1,5-a]pyridin-2-yl]-[3-(2-methanesulfonyl-ethyl)-2,3,4,5-tetrahydro-1H-3-benzazepin-7-yl)amine]	2000	24.8
CS(=O)(=O)c1ccc(-c2cccn3nc(Nc4cccc(CN5CCOCC5)c4)nc23)cc1 [Example 46, [8-(4-Methanesulfonyl-phenyl)-[1,2,4]triazolo[1,5-a]pyridin-2-yl]-(3-morpholin-4-ylmethyl-phenyl)-amine]	953	0.6
CS(=O)(=O)c1ccc(-c2cccn3nc(NCCc4ccccn4)nc23)cc1 [Example 406, [8-(4-Methanesulfonyl-phenyl)-[1,2,4]triazolo[1,5-a]pyridin-2-yl]-(2-pyridin-2-yl-ethyl)-amine]	10000	10000
CN1CCN(c2cncc(Nc3nc4c(-c5ccc(S(C)(=O)=O)cc5)cccn4n3)n2)CC1 [Example 386, [8-(4-Methanesulfonyl-phenyl)-[1,2,4]triazolo[1,5-a]pyridin-2-yl]-(4-methyl-3,4,5,6-tetrahydro-2H-[1,2′]bipyrazinyl-6′-yl)-amine]	10000	29.9
CN1CCN(Cc2ccc(Nc3nc4cccc(-c5cccc(S(C)(=O)=O)c5)n4n3)cc2)CC1 [Example 88, [5-(3-Methanesulfonyl-phenyl)-[1,2,4]triazolo[1,5-a]pyridin-2-yl]-[4-(4-methyl-piperazin-1-ylmethyl)-phenyl]-amine]	1030	11.7
CN(c1ncccc1Nc1cccn2nc(Nc3ccc(OCCN4CCCC4)cc3)nc12)S(C)(=O)=O [Example 132, N-Methyl-N-(3-{2-[4-(2-pyrrolidin-1-yl-ethoxy)-phenylamino]-[1,2,4]triazolo[1,5-a]pyridin-8-ylamino}-pyridin-2-yl)-methanesulfonamide]	3000	33.1

Reference: US8501936B2 (priority 2009, dated 2013)
